Patent US4873243A, “Derivatives of 3-imino-pyridazine, process for obtaining them and pharmaceutical compositions containing them” (SANOFI, priority 1985, dated 1989)
Counter-ions that a name gives are not always drawn. Like-named read-outs stand apart in the source and are kept apart here.

What was measured:
[1] = biological target: GABA post-synaptic receptor; experiment: Displacement of tritiated GABA from its post-synaptic receptor (Enna and Snyder method), suspension of synaptic membrane; type: binding; conditions: in vitro, tritiated GABA 2.9 nM final concentration
Procedure: The therapeutic activity of the products according to the invention has been studied.
The study was carried out in accordance with the method of ENNA and SNYDER (Brain Research 100, 81-97, 1975). The experiment was carried out in vitro in the presence of a suspension of synaptic membrane and tritiated GABA at a final concentration of 2.9 nM.
The results are expressed in Inhibit Concentration 50 (IC50), i.e. the micromolar concentration which inhibits 50% of the fixation of the GABA on its post-synaptic receptor.

[2] = system: mouse; experiment: Acute toxicity in the mouse; type: in vivo; conditions: 100 mg/kg intraperitoneal
From the text: The products according to the invention may be administered by the oral route or by the injectable route.

[3] = system: reserpine-induced ptosis in the mouse; experiment: Antagonism of reserpine-induced ptosis in the mouse; type: in vivo; conditions: 100 mg/kg intraperitoneal; reserpine 2 mg/kg intravenous at the same time; female mice; one hour after administration
Procedure: The anti-depressant properties of the products according to the invention have been studied in the animal. The anti-depressant activity was assessed in the test of antagonism of reserpine-induced ptosis in the mouse.
The study was carried out on batches of 10 female mice weighing 20±1 g. The products to be studied were administered by the intraperitoneal route at the same time as the reserpine by the intravenous route at the dose of 2 mg/kg.
In parallel, a control batch received only the vehicle of administration of the product to be studied and the reserpine.
One hour after administration, the animals were observed individually. All the animals of the control batch presented ptosis. For the treated batches, the animals not presenting ptosis were counted and the percentage of the animals where the ptosis was antagonized were determined.

[4] = read-out: IC50 (concentration which inhibits 50% of the fixation of the GABA on its post-synaptic receptor)

Compound	IC50 [1, 4] [nM]	further results
N=c1ccc(-c2ccccc2)nn1Cc1cc(O)no1 [SR 95812]	–	IC50 ([1]; listed as 95812, read-out: IC50 (concentration which inhibits 50% of the fixation of the GABA on its post-synaptic receptor)): 1200 nM
N=c1ccc(-c2ccsc2)nn1Cc1cc(O)no1 [SR 95893]	1600	–
N=c1ccc(-c2ccccc2)nn1Cc1cc(O)no1 [SR 95884]	–	IC50 ([1]; listed as 95884, read-out: IC50 (concentration which inhibits 50% of the fixation of the GABA on its post-synaptic receptor)): 1800 nM
Cc1cc(-c2ccccc2)nn(Cc2cc(O)no2)c1=N [SR 95538, 2-[(3-hydroxy 5-isoxazolyl)methyl]-3-imino-4-methyl-6-phenyl-2,3-dihydro-pyridazine, hydrobromide]	1000	sign of acute toxicity [2]: no sign of acute toxicity; animals in which ptosis was antagonized (inhibits ptosis) [3]: 30%

Further lines, with some results ahead:

IC50 [1, 4] [nM]	Compound	further results
6600	Cc1nn(Cc2cc(O)ns2)c(=N)cc1-c1ccccc1 [SR 95886]	–
120	N=c1c2ccccc2c(-c2ccccc2)nn1Cc1cc(O)no1 [SR 95894]	–
75	N=c1ccc(-c2ccc3c(c2)OCO3)nn1Cc1cc(O)no1 [SR 95895]	–
150	N=c1ccc(-c2ccc(Cl)cc2)nn1Cc1cc(O)ns1 [SR 95885, 2-[(3-hydroxy-5-isothiazolyl)methyl]-3-imino-6-(4-chloro-phenyl)-2,3-dihydro-pyridazine, hydrobromide]	–
